Row | melting point | SMILES
1 | 197 to 199 °C | O=C(NC(NC(=S)Nc1cccnc1)C(Cl)(Cl)Cl)c1ccc(I)cc1 (stereo not given)
2 | 190 to 192 °C | COc1ccc(-c2nsc(C(=O)O)c2C(=O)O)cc1OC
3 | 164 °C | CC(C)(C)OC(=O)N1CCN(c2ccc(N=C(N)c3cccs3)cc2)CC1
4 | 91 to 92 °C | CCCCN(C#N)C(=O)C(C)Oc1ccc(Oc2nc3ccc(Cl)cc3o2)cc1 (stereo not given)
5 | 95 to 96 °C | O=C(c1c[nH]c2ccc(Br)cc12)[C@H]1CCCN1C(=O)OCc1ccccc1
6 | 178 to 179 °C | CCCN=CNc1cccc(O)n1
7 | 38 to 42 °C | CC(C)(C)COC(=O)c1cc(Cl)c(F)c(Cl)c1F
8 | 107 to 109 °C | CC(C)Oc1cc(-n2c(=O)c(F)c(C(F)(F)C(F)(F)F)n(C)c2=O)c(F)cc1Cl
9 | 207 to 208 °C | O=CN1CC2Oc3ccccc3OC2C1 (stereo not given)
10 | 108 °C | COCc1ccc(N)c(O)c1
11 | 101 to 103 °C | O=C(c1ccc(F)cc1)N1CC2CC2(c2ccccc2)C1 (stereo not given)
12 | 75 °C | CCOC(=O)c1ccc(-c2cccc(-c3ccc4c(c3)C(C)(C)CCC4(C)C)c2OCOC)cc1
13 | 116 to 119 °C | CCCC(=O)Oc1ccc(C)cc1[C@H](CCN(C(C)C)C(C)C)c1ccccc1
14 | 138 to 139 °C | COc1ccc(NC2C3CCC(CC3=O)C2(C)c2ccccc2)cc1 (stereo not given)
15 | 136 to 137 °C | COCCOCCOCC(=O)Nc1cc(C(=O)O)cc([N+](=O)[O-])c1
16 | 150 to 152 °C | O=C1CCC(N2Cc3c(OCc4nc(CN5CCOCC5)no4)cccc3C2=O)C(=O)N1 (stereo not given)
17 | 78 to 80 °C | C=CCSc1ccc(Oc2ccccc2C)nn1
18 | 125 to 127 °C | Nc1ccc(Sc2cccc3cnccc23)cc1NCc1ccccc1
19 | 35 to 36.5 °C | Nc1ccc(S)c(C(F)(F)F)c1
20 | 65 to 66 °C | C=CCNc1nc(NCCCCCCCCC)c2scc(C)c2n1
21 | 137 to 139 °C | Cc1csc2c(Cl)c(Cl)c(O)cc12
22 | 117 to 120 °C | NC(=O)c1cc(Oc2ccc3c(C(=O)Nc4cccc(C(F)(F)F)c4)cccc3c2)ccn1
23 | 102 to 104 °C | COC(=O)c1ccc(S(C)(=O)=O)c(-c2cc(C(C)C)no2)c1
24 | 173 to 176 °C | CC(C)CC(C(N)=O)N1C(=O)c2ccccc2C1=O (stereo not given)

Row | melting point | SMILES
25 | 174 to 175 °C | COc1ccc(-c2cccc(NC(N)=O)c2)cc1OC1CCCC1
26 | 156 to 157 °C | CC(C)(C)OC(=O)c1cccc(C#N)n1
27 | 200 to 208 °C | COc1cccc(OC)c1C(=O)Nc1nnc(C2SCCCS2)s1
28 | 81.9 °C | C=CCC(C#N)(C#N)Cc1ccc(C#N)cc1
29 | 192 to 195 °C | CC(c1oc2ccccc2c(=O)c1-c1cccc(F)c1)n1nc(-c2csc(C=O)c2)c2c(N)ncnc21 (stereo not given)
30 | 187 to 189 °C | CC(C)c1ccc(S(=O)(=O)NC(=O)C(Oc2cc(OCc3ccsc3)ccc2C#N)c2ccccc2)cc1 (racemic)
31 | 126 to 128 °C | COc1ccc(CCCO)cc1OCc1coc(/C=C/c2ccccc2)n1
32 | 120 °C | CNC(=O)[C@@H](NC(=O)[C@@H](CC(=O)OCc1ccccc1)n1ccc(-c2ccc(-c3ccc(C#N)cc3)cc2)c1)C(C)(C)C
33 | 173 to 175 °C | COc1cccc(NC(=O)CC23CC4CC(CC(C4)C2)C3)c1C
34 | 86.5 to 87.5 °C | CCCCC/C(=C\C=C\C(=O)O)c1ccc(OC)cc1
35 | 154 to 156 °C | CNc1c2oc3ccccc3c2nn1C
36 | 160 to 163 °C | CCN(CC)C(=O)COC(=O)c1cccc(NC(=O)C(CS)Cc2ccccc2)c1 (stereo not given)
37 | 163 to 165 °C | NC(=O)C1(CCCNC2CC2)c2ccccc2-c2ccccc21
38 | 213 to 215 °C | Cc1cc(C(=O)N2Cc3cccn3Cc3ccccc32)ccc1NC(=O)c1ccc(Cl)cc1Cl
39 | 115 to 117 °C | c1cc(-c2noc(C3CC3)n2)cnn1
40 | 121 to 122 °C | O=C(O)COc1ccc(SCc2cccc(OCc3ccc(Cl)c(C(F)(F)F)c3)c2)c2c1CCC2
41 | 136 to 138 °C | CC(C)n1nc(-c2sc(NC(=O)c3ccc(CN4CCCCC4)cc3)nc2-c2ccccc2)ccc1=O
42 | 54 to 55 °C | O=[N+]([O-])c1cc(Cl)c(OCC(F)(F)F)cc1F
43 | 152 to 153 °C | CNc1ccc(Cl)cc1-c1nnc(C(F)(F)F)n1CC(=O)N1CCOCC1
44 | 119 to 121 °C | COC(=O)CCC#Cc1ccc(O)c(CCC(=O)OC)n1
45 | 93 to 94 °C | COc1cc(OCc2ccccn2)c(C=O)cc1-c1cccs1
46 | 208 to 209 °C | O=C(NCc1ccc(Cl)cc1)c1cnc2c(F)cc(C#CCCCO)cc2c1O
47 | 87 to 88.5 °C | COC(=O)CCCc1cccc(NC(=O)[C@@H](CSC(C)=O)Cc2ccccc2)c1
48 | 102 to 104 °C | CC(Oc1ncn(-c2ccc(C(F)(F)F)cc2)n1)C(=O)N(C)C (stereo not given)

Row | melting point | SMILES
49 | 130 to 132 °C | CCC(O)(CC)CC1NC(=O)c2ccccc21 (stereo not given)
50 | 112 °C | CCOP(=O)(OCC)C1CNc2ccc(C(F)(F)F)cc2C1 (stereo not given)
51 | 121 to 122 °C | CCCc1c[nH]nc1OCCCc1cn(-c2ccc(C(F)(F)F)cn2)nc1OCC
52 | 108 to 109 °C | CC(=O)NC1CCCCC1
53 | 221 to 222 °C | Fc1ccc2c(CCCC3CNCc4c3[nH]c3cnc5cc(Cl)ccc5c43)noc2c1 (stereo not given)
54 | 167 to 169 °C | COC(=O)c1cc(C23CC4CC(CC(C4)C2)C3)c(O)cc1O
55 | 177 to 179 °C | O=C1NCCc2ccc(OCCCCCl)cc2N1
56 | 165 to 168 °C | CCOC(=O)COC(=O)c1cc2c(cn1)[nH]c1ccccc12
57 | 128 to 129 °C | COP(=O)(Cc1ccc([N+](=O)[O-])c2ccccc12)OC
58 | 109 °C | COc1ncccc1C(=O)N(C(C)C)C(C)C
59 | 177 to 178 °C | Cc1cc(NC(=O)C(CS)Cc2ccccc2)cc(C(=O)O)c1 (stereo not given)
60 | 217 °C | O=C(O)Cn1c(=O)n(Cc2ccc(Br)cc2F)c(=O)c2ccc(Br)cc21
61 | 60 to 61 °C | Nc1c(Cl)cc(C(O)CNCCCCCCOCCCc2ccc([N+](=O)[O-])cn2)cc1Cl (stereo not given)
62 | 215 to 216 °C | Nc1ccccc1NC(=O)c1cc2cc(OCCO)ccc2s1
63 | 102 to 104 °C | CC=CCSc1cc(C(=O)O)cc(N)c1-c1ccccc1
64 | 201 to 202 °C | COC(=O)c1[nH]c2ccccc2c1Oc1ccccc1[N+](=O)[O-]
65 | 162 to 163 °C | COc1ccc(C2(Cl)CC(CNC(C)(C)C)=Nc3sc4c(c32)CCNC4)cc1OC (stereo not given)
66 | 188 to 190 °C | O=c1[nH]c2ccc(S(=O)CCN3CCC(Cc4cccc(F)c4F)CC3)cc2o1 (stereo not given)
67 | 305 to 308 °C | CC(C)c1nc(-c2ccc(-c3cnc4[nH]c(=O)n(CC5CCOCC5)c4n3)cc2)n[nH]1
68 | 134 to 135 °C | CC(C)(C(CC(=O)c1ccccc1)c1cccnc1)[N+](=O)[O-] (stereo not given)
69 | 198 to 199 °C | CC(C)(C)c1ccc(-c2c(Cl)c(CN3C(=O)CCC3=O)nc3sc4c(c23)CCN(Cc2ccccc2)C4)cc1
70 | 218 to 219 °C | Cc1cc(C2=NNC(=O)C2)ccc1[N+](=O)[O-]
71 | 100 to 104 °C | O=C1C(CCO)Oc2cc([N+](=O)[O-])ccc2N1Cc1ccc([N+](=O)[O-])cc1 (stereo not given)
72 | 251 to 253 °C | CCn1cc(C(=O)O)c2nc3c(C)cccc3cc2c1=O

Row | melting point | SMILES
73 | 168 °C | Brc1ccc(Oc2ccc(-n3ccnc3)nn2)cc1
74 | 130 to 131 °C | Cc1cc(SCC#Cc2ccc(C(F)(F)F)cc2)ccc1OCC(=O)O
75 | 217 to 219 °C | Cc1cnc(N)c(=O)n1C
76 | 141 to 142 °C | COC(=O)c1cc(-n2c(-c3ccccc3)cc3c2CCCC3)ccc1O
77 | 85 to 86 °C | N#Cc1cc(I)ccc1N
78 | 128 to 129 °C | CCCCCN1C(=O)C2(COc3cc4c(cc32)OCO4)c2c(C#N)cccc21 (stereo not given)
79 | 86 to 87 °C | CCOC(=O)C1C(=O)CC(=O)CC1c1ccccc1 (stereo not given)
80 | 249 °C | CC(=O)Nc1ccc(C(=O)O)cc1O
81 | 78 to 80 °C | N#CC=C1CCN(c2ccc(N3C[C@@H](Cn4cc(C#N)nn4)OC3=O)cc2F)CC1
82 | > 250 °C | NS(=O)(=O)c1cnc(-c2cn(-c3cc(-c4ccc(C(F)(F)F)cc4)cc(C(F)(F)F)n3)cn2)s1
83 | 208 °C | CC(C)(C)OC(=O)NC(COCc1ccccc1)c1nc2c(C(F)(F)F)cccc2c(O)c1C(=O)Nc1nccs1 (stereo not given)
84 | 64 to 68 °C | CCCCc1c(C(=O)N(C)Cc2ccc3c(Br)c(OCC(Cc4ccccc4)C(=O)O)ccc3c2)oc2ccccc12 (stereo not given)
85 | 165 to 177 °C | Cc1ccccc1C(=O)CN1C(=O)C(NC(=O)Nc2cccc(-c3nnn[nH]3)c2)N=C(C2CCCCC2)c2cccc(C)c21 (stereo not given)
86 | 122 to 126 °C | CCCCC(CC)C(=O)Nc1ccc2ccn(Cc3ccc(C(=O)NS(=O)c4ccccc4)cc3OC)c2c1 (stereo not given)
87 | 85 to 86 °C | CCCNC(=O)C1(O)CC(O)C2OC(C)(C)OC2C1 (stereo not given)
88 | 189 to 191 °C | O=C(NCc1ccc2cc(O)ccc2c1)c1cc(-c2ccc(Cl)cc2)oc1C(F)(F)F
89 | > 250 °C | COc1cc2ncc(C#N)c(Nc3ccc(C)c(Cl)c3)c2cc1OC
90 | 155 to 156 °C | CSc1cc(C)nc(SC)c1NC(=O)CCCCSc1nc2c(C)c(Cl)cc(C(C)C)c2o1
91 | 80 to 90 °C | CCc1oc2ccccc2c1C(=O)N(C)Cc1ccc2cc(O)ccc2c1
92 | 118 to 119 °C | NS(=O)(=O)NC[C@H]1COc2ccc(Cl)cc2O1
93 | 130 to 132 °C | Cc1c(NC(=O)CC(C)(C)C)cc2c(c1C)OC(C)(C)C2Cc1ccc(C(C)C)cc1 (stereo not given)
94 | 152 to 153 °C | Cn1c(C(F)(F)F)cc(=O)n(-c2cc(OCC(=O)c3ccccc3)c(Cl)cc2F)c1=O

Row | SMILES | melting point
95 | CN(C)CCNC(=O)c1cccc2c1c(C(=O)C(=O)NC1=CC(=O)OC1)cn2Cc1ccc(Cl)cc1 | 225 to 227 °C
96 | CCC1(O)CC(=O)OCc2c1cc1n(c2=O)Cc2cc3ccc(F)cc3nc2-1 (stereo not given) | > 250 °C
97 | Cc1c(C2CCC(Cc3ccccc3)(N(C)C)CC2)[nH]c2ccc(C(F)(F)F)cc12 (stereo not given) | 166 to 174 °C
98 | O=S(=O)(F)c1ccccc1S(=O)(=O)F | 130 to 131 °C
99 | CC(=O)C(C#N)c1ccc(F)cc1 (stereo not given) | 77 to 83 °C
100 | O=C1NCN(c2ccccc2)C12CCN(CCCn1c(=O)[nH]c3cccc(Cl)c31)CC2 | 258 °C
